Laboratory results taken from patent US8486966B2, “9-(pyrazol-3-yl)-9H-purine-2-amine and 3-(pyrazol-3-yl) -3H-imidazo[4,5-B] pyridin-5-amine derivatives and their use for the treatment of cancer” (Astrazeneca AB, priority 2007, dated 2013).

Tests used:
[1] = biological target: human Trk A kinase (Homo sapiens (Human), UniProt P04629); assay: Trk A kinase Alphascreen assay; assay type: biochemical; conditions: 0.838 ng/ml Trk A, 70 μM ATP, 20 minutes, room temperature; read-out: Trk inhibitory activity IC50
human Trk A kinase, sequence (P04629 442-796): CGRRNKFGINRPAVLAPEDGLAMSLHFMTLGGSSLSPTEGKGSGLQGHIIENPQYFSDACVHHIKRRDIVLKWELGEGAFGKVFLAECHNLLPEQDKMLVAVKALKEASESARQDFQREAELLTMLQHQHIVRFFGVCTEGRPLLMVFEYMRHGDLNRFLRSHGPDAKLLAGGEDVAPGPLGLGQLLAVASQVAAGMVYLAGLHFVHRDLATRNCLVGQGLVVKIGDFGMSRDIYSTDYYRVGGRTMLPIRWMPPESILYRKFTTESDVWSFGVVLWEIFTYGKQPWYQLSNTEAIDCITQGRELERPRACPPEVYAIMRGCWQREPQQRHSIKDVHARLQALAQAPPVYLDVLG
Method: Trk A kinase activity was determined by measuring the kinase's ability to phosphorylate synthetic tyrosine residues within a generic polypeptide substrate using an Amplified Luminescent Proximity Assay (Alphascreen) technology (PerkinElmer, 549 Albany Street, Boston, Mass.).
To measure Trk A kinase activity, the intracellular domain of a HIS-tagged human Trk A kinase (amino acids 442-796 of Trk A, Swiss-Prot Primary Accession Number P04629) may be expressed in SF9 cells and purified using standard nickel column chromatography. After incubation of the kinase with a biotinylated substrate and adenosine triphosphate (ATP) for 20 minutes at room temperature, the kinase reaction may be stopped by the addition of 30 mM ethylenediaminetetraacetic acid (EDTA). The reaction may be performed in 384 well microtitre plates and the reaction products may be detected with the addition of strepavidin coated Donor Beads and phosphotyrosine-specific antibodies coated Acceptor Beads using the EnVision Multilabel Plate Reader after an overnight incubation at room temperature.

[2] = biological target: human JAK2 (Homo sapiens (Human), UniProt O60674); assay: JAK2 kinase Alphascreen assay; assay type: biochemical; conditions: 150 pM JAK2 enzyme, 15 μM ATP, 60 minutes, room temperature; read-out: JAK inhibitory activity IC50
human JAK2, sequence (O60674 808-1132 limits assumed): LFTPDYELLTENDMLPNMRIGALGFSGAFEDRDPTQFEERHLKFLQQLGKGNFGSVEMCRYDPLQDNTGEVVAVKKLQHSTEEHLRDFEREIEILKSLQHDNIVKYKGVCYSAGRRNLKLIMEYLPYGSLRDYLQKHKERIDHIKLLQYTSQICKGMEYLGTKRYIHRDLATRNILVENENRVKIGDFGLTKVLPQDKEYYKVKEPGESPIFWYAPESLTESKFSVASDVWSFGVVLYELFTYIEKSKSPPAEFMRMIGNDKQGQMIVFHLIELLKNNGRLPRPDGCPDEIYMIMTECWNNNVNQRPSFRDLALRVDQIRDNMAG
Method: JAK2 kinase activity was determined by measuring the kinase's ability to phosphorylate synthetic tyrosine residues within a generic polypeptide substrate using an Amplified Luminescent Proximity Assay (Alphascreen) technology (PerkinElmer, 549 Albany Street, Boston, Mass.).
To measure JAK2 kinase activity, a commercially available purified enzyme may be used. The enzyme may be a C-terminal His6-tagged, recombinant, human JAK2, amino acids 808-end, (Genbank Accession number NM 004972) expressed by baculovirus in Sf21 cells (Upstate Biotechnology MA). After incubation of the kinase with a biotinylated substrate and adenosine triphosphate (ATP) for 60 minutes at room temperature, the kinase reaction may be stopped by the addition of 30 mM ethylenediaminetetraacetic acid (EDTA). The reaction may be performed in 384 well microtitre plates and the reaction products may be detected with the addition of streptavidin coated Donor Beads and phosphotyrosine-specific antibodies coated Acceptor Beads using the EnVision Multilabel Plate Reader after an overnight incubation at room temperature.

Compound | IC50 [1] | IC50 [2]
CC(C)Oc1cc(-n2cnc3ccc(N[C@@H](C)c4ccc(F)cn4)nc32)n[nH]1 [Example 1, N-[(1S)-1-(5-fluoropyridin-2-yl)ethyl]-3-(5-isopropoxy-1H-pyrazol-3-yl)-3H-imidazo[4,5-b]pyridin-5-amine] | 3 nM | –
C[C@H](Nc1ccc2ncn(-c3cc(C4CC4)[nH]n3)c2n1)c1ccc(F)cn1 [Example 2, 3-(5-Cyclopropyl-1H-pyrazol-3-yl)-N-[(1S)-1-(5-fluoropyridin-2-yl)ethyl]-3H-imidazo[4,5-b]pyridin-5-amine] | 3 nM | –
C[C@H](Nc1ncc2ncn(-c3cc(C4CC4)[nH]n3)c2n1)c1ncc(F)cn1 [Example 4, 9-(5-Cyclopropyl-1H-pyrazol-3-yl)-N-[(1S)-1-(5-fluoropyrimidin-2-yl)ethyl]-9H-purin-2-amine] | 12 nM | –
C[C@H](Nc1ncc2ncn(-c3cc(C4CC4)[nH]n3)c2n1)c1ccc(F)cn1 [Example 5, 9-(5-Cyclopropyl-1H-pyrazol-3-yl)-N-[(1S)-1-(5-fluoropyridin-2-yl)ethyl]-9H-purin-2-amine] | 5 nM | –
CC(C)Oc1cc(-n2cnc3ccc(N[C@@H](C)c4ncc(F)cn4)nc32)n[nH]1 [Example 6, N-[(1S)-1-(5-Fluoropyrimidin-2-yl)ethyl]-3-(5-isopropoxy-1H-pyrazol-3-yl)-3H-imidazo[4,5-b]pyridin-5-amine] | 3 nM | –
CC(C)Oc1cc(-n2cnc3ccc(N[C@@H](CO)c4ccc(F)cn4)nc32)n[nH]1 [Example 7, (2R)-2-(5-Fluoropyridin-2-yl)-2-{[3-(5-isopropoxy-1H-pyrazol-3-yl)-3H-imidazo[4,5-b]pyridin-5-yl]amino}ethanol] | 3 nM | –
CCOc1cc(-n2cnc3ccc(N[C@@H](CO)c4ccc(F)cn4)nc32)n[nH]1 [Example 8, (2R)-2-{[3-(5-Ethoxy-1H-pyrazol-3-yl)-3H-imidazo[4,5-b]pyridin-5-yl]amino}-2-(5-fluoropyridin-2-yl)ethanol] | 3 nM | –
CCOc1cc(-n2cnc3ccc(N[C@@H](C)c4ncc(F)cn4)nc32)n[nH]1 [Example 9, 3-(5-Ethoxy-1H-pyrazol-3-yl)-N-[(1S)-1-(5-fluoropyrimidin-2-yl)ethyl]-3H-imidazo[4,5-b]pyridin-5-amine] | 3 nM | –
CCOc1cc(-n2cnc3ccc(N[C@@H](C)c4ccc(F)cn4)nc32)n[nH]1 [Example 10, 3-(5-Ethoxy-1H-pyrazol-3-yl)-N-[(1S)-1-(5-fluoropyridin-2-yl)ethyl]-3H-imidazo[4,5-b]pyridin-5-amine] | 3 nM | –
CC(C)Oc1cc(-n2cnc3cnc(N[C@@H](C)c4ccc(F)cn4)nc32)n[nH]1 [Example 11, N-[(1S)-1-(5-Fluoropyridin-2-yl)ethyl]-9-(5-isopropoxy-1H-pyrazol-3-yl)-9H-purin-2-amine] | 3 nM | –
CC(C)Oc1cc(-n2cnc3cnc(N[C@@H](C)c4ncc(F)cn4)nc32)n[nH]1 [Example 12, N-[(1S)-1-(5-Fluoropyrimidin-2-yl)ethyl]-9-(5-isopropoxy-1H-pyrazol-3-yl)-9H-purin-2-amine] | 3 nM | –
CC[C@H](Nc1ccc2ncn(-c3cc(OC(C)C)[nH]n3)c2n1)c1ccc(F)cn1 [Example 13, N-[(1S)-1-(5-Fluoropyridin-2-yl)propyl]-3-(5-isopropoxy-1H-pyrazol-3-yl)-3H-imidazo[4,5-b]pyridin-5-amine] | 6 nM | –
CC(C)Oc1cc(-n2cnc3cc(Cl)c(N[C@@H](C)c4ccc(F)cn4)nc32)n[nH]1 [Example 14, 6-Chloro-N-[(1S)-1-(5-fluoropyridin-2-yl)ethyl]-3-(5-isopropoxy-1H-pyrazol-3-yl)-3H-imidazo[4,5-b]pyridin-5-amine] | 4 nM | –
Cc1cc(-n2cnc3cc(F)c(N[C@@H](C)c4ncc(F)cn4)nc32)n[nH]1 [Example 15, 6-Fluoro-N-[(1S)-1-(5-fluoropyrimidin-2-yl)ethyl]-3-(5-methyl-1H-pyrazol-3-yl)-3H-imidazo[4,5-b]pyridin-5-amine] | 3810 nM | –
Cc1cc(-n2cnc3ccc(N[C@@H](C)c4ncc(F)cn4)nc32)n[nH]1 [Example 16, N-[(1S)-1-(5-Fluoropyrimidin-2-yl)ethyl]-3-(5-methyl-1H-pyrazol-3-yl)-3H-imidazo[4,5-b]pyridin-5-amine] | 61 nM | –
Cc1cc(-n2cnc3ccc(N[C@@H](C)c4ccc(F)cn4)nc32)n[nH]1 [Example 17, N-[(1S)-1-(5-Fluoropyridin-2-yl)ethyl]-3-(5-methyl-1H-pyrazol-3-yl)-3H-imidazo[4,5-b]pyridin-5-amine] | 14 nM | 3 nM
Cc1cc(-n2cnc3cnc(N[C@@H](C)c4ccc(F)cn4)nc32)n[nH]1 [Example 18, N-[(1S)-1-(5-Fluoropyridin-2-yl)ethyl]-9-(5-methyl-1H-pyrazol-3-yl)-9H-purin-2-amine] | 311 nM | –
Cc1cc(-n2cnc3c(C(=O)N4CCOCC4)nc(N[C@@H](C)c4ncc(F)cn4)nc32)n[nH]1 [Example 19, N-[(1S)-1-(5-Fluoropyrimidin-2-yl)ethyl]-9-(5-methyl-1H-pyrazol-3-yl)-6-(morpholin-4-ylcarbonyl)-9H-purin-2-amine] | 7250 nM | –
Cc1cc(-n2cnc3c(NC4CCOCC4)nc(N[C@@H](C)c4ccc(F)cn4)nc32)n[nH]1 [Example 20, N^2-[(1S)-1-(5-Fluoropyridin-2-yl)ethyl]-9-(5-methyl-1H-pyrazol-3-yl)-N^6-(tetrahydro-2H-pyran-4-yl)-9H-purine-2,6-diamine] | 475 nM | –
COc1nc(N[C@@H](C)c2ccc(F)cn2)nc2c1ncn2-c1cc(C)[nH]n1 [Example 21, N-[(1S)-1-(5-Fluoropyridin-2-yl)ethyl]-6-methoxy-9-(5-methyl-1H-pyrazol-3-yl)-9H-purin-2-amine] | 96 nM | –
Cc1cc(-n2cnc3c(N4CCOCC4)nc(N[C@@H](C)c4ccc(F)cn4)nc32)n[nH]1 [Example 22, N-[(1S)-1-(5-Fluoropyridin-2-yl)ethyl]-9-(5-methyl-1H-pyrazol-3-yl)-6-morpholin-4-yl-9H-purin-2-amine] | 773 nM | –
CCOc1cc(-n2cnc3ccc(N[C@@H](CC)c4ccc(F)cn4)nc32)n[nH]1 [Example 23, 3-(5-Ethoxy-1H-pyrazol-3-yl)-N-[(1S)-1-(5-fluoropyridin-2-yl)propyl]-3H-imidazo[4,5-b]pyridin-5-amine] | 3 nM | –
